Source: US9422240B2, “Partially saturated nitrogen-containing heterocyclic compound” (TAISHO PHARMACEUTICAL CO., LTD, priority 2012, dated 2016)

Columns and labels:
human PHD2 [1] = target: T1, human PHD2 (Homo sapiens (Human), UniProt Q9GZT9); assay: Test 1: human PHD2 inhibitory activity, [14C]-2-oxoglutarate to [14C]-succinic acid radiometric assay with HIF-1α peptide; type: biochemical; conditions: test compound's concentration 1 μM; Test 1, [14C]-2-oxoglutarate radiometric assay; read-out: Percent inhibition (% at 1 μM)
Method in brief: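 Activity was measured by radiometric counting of [14C]-succinic acid formed during prolyl hydroxylation of a 19-mer HIF-1α peptide, after DNPH removal of residual [14C]-2-oxoglutarate. Baculovirus-expressed human PHD2 lysate (4 μg/well) reacted for 15 min at 37° C. Substrate-free and compound-free wells served as reference points for inhibition.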

human PHD2 [2] = target: T1, human PHD2; assay: Test 2: human PHD2 inhibitory activity, fluorescence polarization assay of HIF-1α peptide proline hydroxylation; type: biochemical; conditions: test compound's concentration 1 μM; Test 2, fluorescence polarization assay; read-out: Percent inhibition (% at 1 μM)
Method in brief: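 A 19-mer HIF-1α peptide served as substrate, with the reaction started by 40 ng/well human PHD2 (cell lysate of NM_022051-transfected cells) and run 20 min at 30° C. before EDTA stop. Hydroxylated product bound anti-HIF-OH antibody, read by fluorescence polarization versus no-compound control.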

T1 sequence (Q9GZT9 whole entry): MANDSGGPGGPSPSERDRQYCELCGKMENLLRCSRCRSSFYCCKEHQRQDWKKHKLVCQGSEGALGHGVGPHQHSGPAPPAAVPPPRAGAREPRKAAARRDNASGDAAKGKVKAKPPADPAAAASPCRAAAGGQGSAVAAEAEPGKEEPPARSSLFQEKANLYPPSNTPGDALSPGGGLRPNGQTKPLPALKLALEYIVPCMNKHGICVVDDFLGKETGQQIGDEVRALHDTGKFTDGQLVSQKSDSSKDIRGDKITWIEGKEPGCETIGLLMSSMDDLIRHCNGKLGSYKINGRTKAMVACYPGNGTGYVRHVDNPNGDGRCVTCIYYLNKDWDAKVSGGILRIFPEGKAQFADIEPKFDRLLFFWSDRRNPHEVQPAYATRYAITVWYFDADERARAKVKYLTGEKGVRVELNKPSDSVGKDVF

| inhibition at 1 µM (human PHD2 [1]) | inhibition at 1 µM (human PHD2 [2]) | Structure (SMILES) |
| --- | --- | --- |
| 63% | 71% | CC1(C)CC(O)=C(C(=O)NCC(=O)O)C(=O)N1Cc1ccc(Br)cc1 [Ex. 1-150] |
| 67% | 73% | CC1(C)CC(O)=C(C(=O)NCC(=O)O)C(=O)N1Cc1ccc(Cl)cc1 [Ex. 1-157] |
| 67% | 75% | CC1(C)CC(O)=C(C(=O)NCC(=O)O)C(=O)N1Cc1ccc(Cl)c(Cl)c1 [Ex. 1-158] |
| 62% | 62% | CC1(C)CC(O)=C(C(=O)NCC(=O)O)C(=O)N1Cc1ccc(OC(F)F)cc1 [Ex. 1-161] |
| 84% | 90% | CC1CN(Cc2ccc(Cl)c(Cl)c2)C(=O)C(C(=O)NCC(=O)O)=C1O (stereo not drawn) [Ex. 1-163] |
| 49% | 66% | CC1(C)CC(O)=C(C(=O)NCC(=O)O)C(=O)N1Cc1ccc(OC(F)(F)F)c(Cl)c1 [Ex. 1-164] |
| 42% | 55% | CC1(C)CC(O)=C(C(=O)NCC(=O)O)C(=O)N1Cc1ccc(Cl)c(OC(F)(F)F)c1 [Ex. 1-165] |
| 80% | 88% | O=C(O)CNC(=O)C1=C(O)CC2(CCC2)N(Cc2ccc(Cl)c(Cl)c2)C1=O [Ex. 1-167] |
| 28% | 43% | COc1ccc(CN2C(=O)C(C(=O)NCC(=O)O)=C(O)CC2(C)C)cc1OC(F)(F)F [Ex. 1-169] |
| 77% | 79% | CC1CC(O)=C(C(=O)NCC(=O)O)C(=O)N1Cc1ccc(Cl)c(Cl)c1 (stereo not drawn) [Ex. 1-172] |
| 44% | 49% | Cc1cc(CN2C(=O)C(C(=O)NCC(=O)O)=C(O)CC2(C)C)ccc1F [Ex. 1-179] |
| 54% | 65% | Cc1cc(CN2C(=O)C(C(=O)NCC(=O)O)=C(O)CC2(C)C)ccc1Cl [Ex. 1-180] |
| 59% | 60% | Cc1ccc(CN2C(=O)C(C(=O)NCC(=O)O)=C(O)CC2(C)C)cc1F [Ex. 1-184] |
| 44% | 63% | CC1(C)CC(O)=C(C(=O)NCC(=O)O)C(=O)N1Cc1ccc(OC(CF)CF)c(Cl)c1 [Ex. 1-188] |
| 38% | 45% | COc1cc(CN2C(=O)C(C(=O)NCC(=O)O)=C(O)CC2(C)C)ccc1C(F)(F)F [Ex. 1-191] |
| 54% | 57% | COc1ccc(CN2C(=O)C(C(=O)NCC(=O)O)=C(O)CC2(C)C)cc1F [Ex. 1-194] |
| 52% | 57% | COc1ccc(CN2C(=O)C(C(=O)NCC(=O)O)=C(O)CC2(C)C)cc1Cl [Ex. 1-195] |
| 41% | 48% | COc1ccc(CN2C(=O)C(C(=O)NCC(=O)O)=C(O)CC2(C)C)cc1C [Ex. 1-196] |
| 65% | 75% | Cc1cc(CN2C(=O)C(C(=O)NCC(=O)O)=C(O)CC2(C)C)ccc1OCC1CC1 [Ex. 1-199] |
| 58% | 69% | Cc1ccc(CN2C(=O)C(C(=O)NCC(=O)O)=C(O)CC2(C)C)cc1Cl [Ex. 1-202] |
| 61% | 69% | CC1(C)CC(O)=C(C(=O)NCC(=O)O)C(=O)N1Cc1ccc(C2CC2)cc1 [Ex. 1-203] |
| 69% | 79% | CC1(C)CC(O)=C(C(=O)NCC(=O)O)C(=O)N1Cc1ccc(OCC2CC2)c(F)c1 [Ex. 1-204] |

Second part, the molecule before the results:

| Structure (SMILES) | inhibition at 1 µM (human PHD2 [1]) | inhibition at 1 µM (human PHD2 [2]) |
| --- | --- | --- |
| CC1CN(Cc2ccc(Br)cc2)C(=O)C(C(=O)NCC(=O)O)=C1O (stereo not drawn) [Ex. 1-144] | 76% | 85% |
| O=C(O)CNC(=O)C1=C(O)CCN(Cc2ccc(Br)cc2F)C1=O [Ex. 1-145] | 88% | 83% |
| CC(c1ccc(C(F)(F)F)cc1)N1CCC(O)=C(C(=O)NCC(=O)O)C1=O (stereo not drawn) [Ex. 1-146] | 69% | 70% |
| O=C(O)CNC(=O)C1=C(O)C2(CC2)CN(Cc2ccc(C(F)(F)F)cc2)C1=O [Ex. 1-147] | 84% | 88% |
| CC1CC(O)=C(C(=O)NCC(=O)O)C(=O)N1Cc1ccc(Br)cc1 (stereo not drawn) [Ex. 1-148] | 78% | 82% |
| CC1CC(O)=C(C(=O)NCC(=O)O)C(=O)N1Cc1ccc(OC(F)(F)F)cc1 (stereo not drawn) [Ex. 1-149] | 74% | 74% |
| CC1(C)CC(O)=C(C(=O)NCC(=O)O)C(=O)N1Cc1ccc(OC(F)(F)F)cc1 [Ex. 1-151] | 57% | 63% |
| O=C(O)CNC(=O)C1=C(O)CCN(Cc2ccc3c(c2)OC(F)(F)O3)C1=O [Ex. 1-152] | 82% | 83% |
| CCC(c1ccc(C(F)(F)F)cc1)N1CCC(O)=C(C(=O)NCC(=O)O)C1=O (stereo not drawn) [Ex. 1-153] | 64% | 63% |
| O=C(O)CNC(=O)C1=C(O)CC2(CCC2)N(Cc2ccc(OC(F)(F)F)cc2)C1=O [Ex. 1-154] | 77% | 81% |
| O=C(O)CNC(=O)C1=C(O)CC2(CCC2)N(Cc2ccc(Br)cc2)C1=O [Ex. 1-155] | 82% | 83% |
| O=C(O)CNC(=O)C1=C(O)CC2(CCCC2)N(Cc2ccc(C(F)(F)F)cc2)C1=O [Ex. 1-156] | 70% | 80% |
| O=C(O)CNC(=O)C1=C(O)CCN(Cc2ccc(OC(F)(F)F)c(Cl)c2)C1=O [Ex. 1-159] | 78% | 90% |
| O=C(O)CNC(=O)C1=C(O)CCN(Cc2ccc(Cl)c(OC(F)(F)F)c2)C1=O [Ex. 1-160] | 74% | 85% |
| CC1CN(Cc2ccc(Cl)cc2)C(=O)C(C(=O)NCC(=O)O)=C1O (stereo not drawn) [Ex. 1-162] | 78% | 77% |
| O=C(O)CNC(=O)C1=C(O)CC2(CCC2)N(Cc2ccc(Cl)cc2)C1=O [Ex. 1-166] | 82% | 86% |
| Cc1cc(CN2C(=O)C(C(=O)NCC(=O)O)=C(O)CC2(C)C)cc(C)c1OC(F)F [Ex. 1-170] | 35% | 45% |
| CC1CC(O)=C(C(=O)NCC(=O)O)C(=O)N1Cc1ccc(Cl)cc1 (stereo not drawn) [Ex. 1-171] | 81% | 82% |
| O=C(O)CNC(=O)C1=C(O)CCN(CCc2cccc(C(F)(F)F)c2)C1=O [Ex. 1-173] | 64% | 78% |

| Structure (SMILES) | inhibition at 1 µM (human PHD2 [1]) | inhibition at 1 µM (human PHD2 [2]) |
| --- | --- | --- |
| CC1(C)CN(Cc2ccc(C(F)(F)F)cc2)C(=O)C(C(=O)NCC(=O)O)=C1O [Ex. 1-174] | 59% | 74% |
| CC1(C)C(O)=C(C(=O)NCC(=O)O)C(=O)N(Cc2ccc(C(F)(F)F)cc2)C1(C)C [Ex. 1-175] | 32% | 56% |
| O=C(O)CNC(=O)C1=C(O)CCN(CCc2ccc(C(F)(F)F)cc2)C1=O [Ex. 1-176] | 74% | 80% |
| CC1CC(O)=C(C(=O)NCC(=O)O)C(=O)N1Cc1ccc(-c2ccc(F)cc2)cc1 (stereo not drawn) [Ex. 1-177] | 93% | 92% |
| O=C(O)CNC(=O)C1=C(O)CC2(CCC2)N(Cc2ccc(-c3ccc(F)cc3)cc2)C1=O [Ex. 1-178] | 81% | 92% |
| O=C(O)CNC(=O)C1=C(O)CC(Cc2ccccc2)N(Cc2ccc(C(F)(F)F)cc2)C1=O (stereo not drawn) [Ex. 1-181] | 73% | 83% |
| CCC1CC(O)=C(C(=O)NCC(=O)O)C(=O)N1Cc1ccc(C(F)(F)F)cc1 (stereo not drawn) [Ex. 1-182] | 77% | 71% |
| CCC1(CC)CC(O)=C(C(=O)NCC(=O)O)C(=O)N1Cc1ccc(C(F)(F)F)cc1 [Ex. 1-183] | 39% | 50% |
| O=C(O)CNC(=O)C1=C(O)CC(CCc2ccccc2)N(Cc2ccc(C(F)(F)F)cc2)C1=O (stereo not drawn) [Ex. 1-185] | 69% | 81% |
| CC1(C)CC(O)=C(C(=O)NCC(=O)O)C(=O)N1Cc1ccc(OCCCC(F)(F)F)cc1 [Ex. 1-186] | 64% | 77% |
| Cc1cc(CN2C(=O)C(C(=O)NCC(=O)O)=C(O)CC2(C)C)ccc1OCCCC(F)(F)F [Ex. 1-187] | 47% | 74% |
| Cc1cc(CN2C(=O)C(C(=O)NCC(=O)O)=C(O)CC2(C)C)ccc1OC(CF)CF [Ex. 1-189] | 53% | 60% |
| O=C(O)CNC(=O)C1=C(O)CCN(Cc2ccc(C(F)(F)F)c(C3CC3)c2)C1=O [Ex. 1-190] | 84% | 85% |
| CC1(C)CC(O)=C(C(=O)NCC(=O)O)C(=O)N1Cc1ccc(C(F)(F)F)c(OC(F)F)c1 [Ex. 1-192] | 48% | 49% |
| COc1ccc(CN2C(=O)C(C(=O)NCC(=O)O)=C(O)CC2(C)C)c(F)c1 [Ex. 1-193] | 67% | 57% |
| CC(C)C1CN(Cc2ccc(C(F)(F)F)cc2)C(=O)C(C(=O)NCC(=O)O)=C1O (stereo not drawn) [Ex. 1-197] | 66% | 78% |
| CC1(C)CC(O)=C(C(=O)NCC(=O)O)C(=O)N1Cc1ccc(OCC2CC2)cc1 [Ex. 1-198] | 70% | 79% |
| O=C(O)CNC(=O)C1=C(O)C2(CC2)CN(Cc2ccc(-c3ccccc3)cc2)C1=O [Ex. 1-200] | 98% | 99% |
| CC1(C)CC(O)=C(C(=O)NCC(=O)O)C(=O)N1Cc1ccc(OCCCC(F)(F)F)c(F)c1 [Ex. 1-201] | 67% | 73% |
